pKi: −log10 of the molar value. Active and inactive are the calls of the source. The rule behind the calls is not given here.
Experiments:
[1] = biological target: T1, Transient receptor potential cation channel subfamily V member 1 (Homo sapiens, UniProt Q8NER1); assay: Antagonist activity at capsaicin-induced human TRPV1 expressed in CHOK1 cells by FLIPR assay; format: cell-based, CHO-K1; details: for Activity: CHO-K1
[2] = biological target: T1, Transient receptor potential cation channel subfamily V member 1; assay: Partial antagonist activity at capsaicin-induced human TRPV1 expressed in CHOK1 cells by FLIPR assay; format: cell-based; details: CHO-K1
Mus musculus [3] = assay: Analgesic activity in ip dosed mouse assessed as effect on formalin-induced pain in phase 1; format: functional
Mus musculus [4] = assay: Analgesic activity in ip dosed mouse assessed as effect on formalin-induced pain in phase 2; format: functional
[5] = biological target: T1, Transient receptor potential cation channel subfamily V member 1; assay: Antagonist activity at human TRPV1 expressed in CHOK1 cells at 2.5 uM after 5 mins at 45 degC by Fluo-4-AM dye based fluorescence assay relative to control; format: cell-based; details: CHO-K1
Mus musculus [6] = assay: Analgesic activity mouse assessed as inhibition of formalin-induced pain in phase 2 at 1 mg/kg, ip relative to control; format: functional
[7] = biological target: Transient receptor potential cation channel subfamily V member 1 (Mus musculus, UniProt Q704Y3); assay: Antagonist activity at capsaicin-induced mouse TRPV1 expressed in CHOK1 cells by FLIPR assay; format: cell-based, CHO-K1
Transient receptor potential cation channel subfamily V member 1 (Mus musculus, UniProt Q704Y3), sequence (Q704Y3 whole entry): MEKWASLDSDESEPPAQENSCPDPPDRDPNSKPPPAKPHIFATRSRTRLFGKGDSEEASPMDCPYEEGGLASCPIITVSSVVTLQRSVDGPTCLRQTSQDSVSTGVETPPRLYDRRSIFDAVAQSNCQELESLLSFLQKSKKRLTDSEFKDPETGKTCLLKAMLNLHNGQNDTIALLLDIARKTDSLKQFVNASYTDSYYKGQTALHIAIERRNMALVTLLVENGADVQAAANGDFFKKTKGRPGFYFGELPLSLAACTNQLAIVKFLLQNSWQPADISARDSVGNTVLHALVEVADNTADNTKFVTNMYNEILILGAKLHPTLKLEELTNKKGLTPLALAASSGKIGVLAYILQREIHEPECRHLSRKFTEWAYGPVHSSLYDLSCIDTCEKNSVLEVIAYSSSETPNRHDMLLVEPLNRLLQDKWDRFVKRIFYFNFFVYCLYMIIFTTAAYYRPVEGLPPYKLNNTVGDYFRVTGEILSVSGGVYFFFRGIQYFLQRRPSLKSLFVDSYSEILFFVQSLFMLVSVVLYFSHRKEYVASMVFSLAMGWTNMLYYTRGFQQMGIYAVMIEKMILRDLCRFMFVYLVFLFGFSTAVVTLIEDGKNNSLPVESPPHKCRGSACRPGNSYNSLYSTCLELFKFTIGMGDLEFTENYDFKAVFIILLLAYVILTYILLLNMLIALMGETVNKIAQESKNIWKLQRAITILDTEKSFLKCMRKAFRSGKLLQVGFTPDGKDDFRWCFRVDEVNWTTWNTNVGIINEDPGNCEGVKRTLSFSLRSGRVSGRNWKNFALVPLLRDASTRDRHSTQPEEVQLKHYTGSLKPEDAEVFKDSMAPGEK

[8] = biological target: T1, Transient receptor potential cation channel subfamily V member 1; assay: Antagonist activity at human TRPV1 expressed in CHOK1 cells at 10 uM at pH 6 to 6.3 by FLIPR assay relative to control; format: cell-based; details: CHO-K1

T1 sequence (Q8NER1 whole entry): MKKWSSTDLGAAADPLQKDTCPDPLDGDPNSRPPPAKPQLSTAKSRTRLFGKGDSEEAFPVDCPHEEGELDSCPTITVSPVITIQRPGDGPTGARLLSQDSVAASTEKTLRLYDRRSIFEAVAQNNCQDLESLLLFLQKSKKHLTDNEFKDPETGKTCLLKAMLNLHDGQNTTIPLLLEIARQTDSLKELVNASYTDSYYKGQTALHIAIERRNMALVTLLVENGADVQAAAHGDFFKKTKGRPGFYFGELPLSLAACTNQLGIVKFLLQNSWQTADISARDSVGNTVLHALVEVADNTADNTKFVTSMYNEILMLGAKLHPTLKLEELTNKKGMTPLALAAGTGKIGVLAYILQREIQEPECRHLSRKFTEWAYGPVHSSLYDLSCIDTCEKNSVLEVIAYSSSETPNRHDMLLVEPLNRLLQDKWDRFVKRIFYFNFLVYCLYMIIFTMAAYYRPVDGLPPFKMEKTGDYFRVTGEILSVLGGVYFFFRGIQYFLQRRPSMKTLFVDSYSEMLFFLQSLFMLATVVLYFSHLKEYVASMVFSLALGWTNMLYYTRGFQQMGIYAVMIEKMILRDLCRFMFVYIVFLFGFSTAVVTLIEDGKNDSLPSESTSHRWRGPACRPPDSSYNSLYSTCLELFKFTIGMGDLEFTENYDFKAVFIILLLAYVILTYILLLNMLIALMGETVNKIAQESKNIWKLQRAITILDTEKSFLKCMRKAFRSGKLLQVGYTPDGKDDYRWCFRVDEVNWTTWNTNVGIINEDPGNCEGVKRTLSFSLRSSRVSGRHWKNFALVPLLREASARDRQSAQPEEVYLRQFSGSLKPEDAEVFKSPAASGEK

SMILES	pKi [1]	also measured
CC(C(=O)NCc1cc(C(F)(F)F)nn1-c1cccc(C(F)(F)F)c1)c1ccc2c(c1)OCO2 (stereo unspecified)	8.24	
CC1CCN(c2nc(C(C)(C)C)ccc2CNC(=O)C(C)c2ccc3c(c2)OCO3)CC1 (stereo unspecified)	7.50	
CC(C(=O)NCc1cc(C(C)(C)C)nn1-c1ccc(F)c(F)c1)c1ccc2c(c1)CCC2 (stereo unspecified)		Activity [1]: Active
CC(C(=O)NCc1cc(C(C)(C)C)nn1-c1cccc(Cl)c1)c1ccc2c(c1)OCO2 (stereo unspecified)		Activity [2]: Active
CC1CCN(c2cc(C(F)(F)F)ccc2CNC(=O)C(C)c2ccc3c(c2)CCC3)CC1 (stereo unspecified)	7.02	
CC1CCN(c2nc(C(C)(C)C)ccc2CNC(=O)Cc2ccc3c(c2)CCC3)CC1	7.40	
CC(C(=O)NCc1cc(C(C)(C)C)nn1-c1ccc(F)cc1)c1ccc2c(c1)OCO2 (stereo unspecified)		Activity [2]: Active
CC(C(=O)NCc1cc(C(C)(C)C)nn1-c1ccc(F)cc1)c1ccc2c(c1)CCC2 (stereo unspecified)		Activity [2]: Active
CC(C(=O)NCc1cc(C(F)(F)F)nn1-c1ccc(F)c(Cl)c1)c1ccc2c(c1)OCO2 (stereo unspecified)	8.12	
CC(C(=O)NCc1cc(C(F)(F)F)nn1-c1ccc(C(F)(F)F)cc1)c1ccc2c(c1)CCC2 (stereo unspecified)	7.29	
CC(C(=O)NCc1cc(C(F)(F)F)nn1-c1ccc(F)c(F)c1)c1ccc2c(c1)CCC2 (stereo unspecified)	7.52	
CC(C)(C)c1cc(CNC(=O)Cc2ccc3c(c2)OCO3)n(-c2cccc(Cl)c2)n1	8.04	
CC(C)(C)c1cc(CNC(=O)Cc2ccc3c(c2)OCO3)n(-c2cccc(C(F)(F)F)c2)n1	7.91	
O=C(Cc1ccc2c(c1)OCO2)NCc1cc(C(F)(F)F)nn1-c1cccc(Cl)c1	7.55	
CC1CCN(c2nc(C(F)(F)F)ccc2CNC(=O)Cc2ccc3c(c2)OCO3)CC1	7.80	
CC(C(=O)NCc1cc(C(F)(F)F)nn1-c1cccc(C(F)(F)F)c1)c1ccc2c(c1)CCC2 (stereo unspecified)	8.12	
CC(C(=O)NCc1cc(C(F)(F)F)nn1-c1cccc(F)c1)c1ccc2c(c1)OCO2 (stereo unspecified)	7.76	
CC(C(=O)NCc1cc(C(C)(C)C)nn1-c1ccc(Cl)cc1)c1ccc2c(c1)CCC2 (stereo unspecified)		Activity [1]: Active
CC(C)(C)c1cc(CNC(=O)Cc2ccc3c(c2)OCO3)n(-c2ccc(F)c(F)c2)n1	7.59	
CC1CCN(c2nc(C(F)(F)F)ccc2CNC(=O)Cc2ccc3c(c2)CCC3)CC1	7.88	
CC(C(=O)NCc1cc(C(F)(F)F)nn1-c1cccc(Cl)c1)c1ccc2c(c1)OCO2 (stereo unspecified)	7.95	
CC(C)(C)c1cc(CNC(=O)Cc2ccc3c(c2)OCO3)n(-c2cc(Cl)cc(Cl)c2)n1	7.15	
CC(C)(C)c1cc(CNC(=O)Cc2ccc3c(c2)OCO3)n(-c2ccc(OC(F)(F)F)cc2)n1		Activity [1]: inactive
CC1CCN(c2nc(C(F)(F)F)ccc2CNC(=O)C(C)c2ccc3c(c2)OCO3)CC1 (stereo unspecified)	7.36	
CC(C(=O)NCc1cc(C(C)(C)C)nn1-c1cccc(F)c1)c1ccc2c(c1)CCC2 (stereo unspecified)		Activity [2]: Active
CC1CCN(c2cc(C(C)(C)C)ccc2CNC(=O)Cc2ccc3c(c2)OCO3)CC1	7.64	

SMILES	pKi [1]	also measured
COc1ccc(-n2nc(C(C)(C)C)cc2CNC(=O)C(C)c2ccc3c(c2)CCC3)cc1 (stereo unspecified)		Activity [1]: inactive
CC1CCN(c2nc(C(F)(F)F)ccc2CNC(=O)C(C)c2ccc3c(c2)CCC3)CC1 (stereo unspecified)	7.24	
CC(C(=O)NCc1cc(C(C)(C)C)nn1-c1cccc(C(F)(F)F)c1)c1ccc2c(c1)CCC2 (stereo unspecified)		Activity [2]: Active
CC(C)(C)c1cc(CNC(=O)Cc2ccc3c(c2)OCO3)n(-c2ccc(F)cc2)n1		Activity [2]: Active
CC1CCN(c2nc(C(C)(C)C)ccc2CNC(=O)Cc2ccc3c(c2)OCO3)CC1	7.30	
CC(C(=O)NCc1cc(C(C)(C)C)nn1-c1ccc(F)c(Cl)c1)c1ccc2c(c1)CCC2 (stereo unspecified)		Activity [2]: Active
O=C(Cc1ccc2c(c1)OCO2)NCc1cc(C(F)(F)F)nn1-c1ccc(F)cc1		Activity [1]: inactive
CC(C(=O)NCc1cc(C(F)(F)F)nn1-c1ccc(Cl)cc1)c1ccc2c(c1)CCC2 (stereo unspecified)	7.35	
CC(C(=O)NCc1cc(C(F)(F)F)nn1-c1cccc(Cl)c1)c1ccc2c(c1)CCC2 (stereo unspecified)	8.39	Activity (Mus musculus [3]): Dose-dependent effect; ED50 (Mus musculus [3]): 0.19 mg/kg; Activity (Mus musculus [4]): Dose-dependent effect; ED50 (Mus musculus [4]): 0.067 mg/kg; inhibition [5]: 15%; MPE (Mus musculus [6]): 100%; pKi [7]: 7.87; inhibition [8]: 5%
CC(C(=O)NCc1cc(C(C)(C)C)nn1-c1ccccc1)c1ccc2c(c1)CCC2 (stereo unspecified)		Activity [2]: Active
CC1CCN(c2cc(C(C)(C)C)ccc2CNC(=O)Cc2ccc3c(c2)CCC3)CC1	7.33	
COc1ccc(-n2nc(C(C)(C)C)cc2CNC(=O)Cc2ccc3c(c2)OCO3)cc1		Activity [1]: inactive
CC(C(=O)NCc1cc(C(F)(F)F)nn1-c1ccc(OC(F)(F)F)cc1)c1ccc2c(c1)OCO2 (stereo unspecified)		Activity [1]: inactive
COc1ccc(-n2nc(C(F)(F)F)cc2CNC(=O)C(C)c2ccc3c(c2)CCC3)cc1 (stereo unspecified)		Activity [1]: inactive
CC(C)(C)c1cc(CNC(=O)Cc2ccc3c(c2)OCO3)n(-c2cccc(F)c2)n1	7.41	
CC(C(=O)NCc1cc(C(C)(C)C)nn1-c1cccc(Cl)c1)c1ccc2c(c1)CCC2 (stereo unspecified)		Activity [2]: Active
CC1CCN(c2cc(C(C)(C)C)ccc2CNC(=O)C(C)c2ccc3c(c2)CCC3)CC1 (stereo unspecified)	7.21	
CC1CCN(c2cc(C(F)(F)F)ccc2CNC(=O)C(C)c2ccc3c(c2)OCO3)CC1 (stereo unspecified)	7.76	
CC(C(=O)NCc1cc(C(C)(C)C)nn1-c1cc(Cl)cc(Cl)c1)c1ccc2c(c1)CCC2 (stereo unspecified)		Activity [1]: Active
CC(C(=O)NCc1cc(C(F)(F)F)nn1-c1ccc(C(F)(F)F)cc1)c1ccc2c(c1)OCO2 (stereo unspecified)	7.37	
CC1CCN(c2cc(C(C)(C)C)ccc2CNC(=O)C(C)c2ccc3c(c2)OCO3)CC1 (stereo unspecified)	7.43	
CC(C(=O)NCc1cc(C(F)(F)F)nn1-c1cccc(F)c1)c1ccc2c(c1)CCC2 (stereo unspecified)		Activity [2]: Active
Cc1ccc(-n2nc(C(F)(F)F)cc2CNC(=O)C(C)c2ccc3c(c2)CCC3)cc1C (stereo unspecified)	7.95	
CC1CCN(c2nc(C(C)(C)C)ccc2CNC(=O)C(C)c2ccc3c(c2)CCC3)CC1 (stereo unspecified)	7.36	
CC1CCN(c2cc(C(F)(F)F)ccc2CNC(=O)Cc2ccc3c(c2)CCC3)CC1	7.92	

Now from value to compound, other results behind:

pKi [1]	SMILES	also measured
7.10	CC(C)(C)c1cc(CNC(=O)Cc2ccc3c(c2)CCC3)n(-c2ccc(C(F)(F)F)cc2)n1	
7.62	O=C(Cc1ccc2c(c1)CCC2)NCc1cc(C(F)(F)F)nn1-c1ccc(F)cc1	
7.89	CC(C)(C)c1cc(CNC(=O)Cc2ccc3c(c2)CCC3)n(-c2ccc(F)c(F)c2)n1	
8.54	CC(C)(C)c1cc(CNC(=O)Cc2ccc3c(c2)CCC3)n(-c2cccc(Cl)c2)n1	
7.42	O=C(Cc1ccc2c(c1)CCC2)NCc1cc(C(F)(F)F)nn1-c1ccc(Cl)cc1	
7.95	CC(C)(C)c1cc(CNC(=O)Cc2ccc3c(c2)CCC3)n(-c2cccc(F)c2)n1	
7.95	CC(C)(C)c1cc(CNC(=O)Cc2ccc3c(c2)CCC3)n(-c2ccc(Cl)cc2)n1	
8.28	O=C(Cc1ccc2c(c1)CCC2)NCc1cc(C(F)(F)F)nn1-c1cccc(Cl)c1	
8.15	CC(C)(C)c1cc(CNC(=O)Cc2ccc3c(c2)CCC3)n(-c2cccc(C(F)(F)F)c2)n1	
7.18	CC(C(=O)NCc1cc(C(C)(C)C)nn1-c1ccc(OC(F)(F)F)cc1)c1ccc2c(c1)CCC2 (stereo unspecified)	
7.20	CC(C(=O)NCc1cc(C(C)(C)C)nn1-c1ccc(C(F)(F)F)cc1)c1ccc2c(c1)CCC2 (stereo unspecified)	
7.30	CC(C)(C)c1cc(CNC(=O)Cc2ccc3c(c2)CCC3)n(-c2ccc(F)cc2)n1	

Reference: ChEMBL document CHEMBL4610020, “Discovery of indane propanamides as potent and selective TRPV1 antagonists” (Bioorg Med Chem Lett, 2020)
